Test results taken from patent publication US20250127169A1, “PLANTS HAVING INCREASED TOLERANCE TO HERBICIDES” (BASF Agricultural Solutions Seed US LLC, priority 2021, published 2025).
pIC50: −log10 of the molar value. Like-named read-outs stand apart in the source and are kept apart here.

Tests used:
[1] = tested on: Soybean cv Jake WT (non-transgenic); format: in vivo; conditions: post, single plants
Experimental: Soybean cv Jake is transformed as previously described by Siminszky et al., Phytochem Rev. 5:445-458 (2006). After regeneration, transformants are transplanted to soil in small pots, placed in growth chambers (16 hr day/8 hr night; 25° C. day/23° C. night; 65% relative humidity; 130-150 microE m-2 s-1) and subsequently tested for the presence of the T-DNA via Taqman analysis. After a few weeks, healthy, transgenic positive, single copy events are transplanted to larger pots and allowed to grow in the growth chamber. An optimal shoot for cutting is about 3-4 inches tall, with at least two nodes present. Each cutting is taken from the original transformant (mother plant) and dipped into rooting hormone powder (indole-3-butyric acid, IBA). The cutting is then placed in oasis wedges inside a bio-dome. The mother plant is taken to maturity in the greenhouse and harvested for seed. Wild type cuttings are also taken simultaneously to serve as negative controls. The cuttings are kept in the bio-dome for 5-7 days and then transplanted to 3 inch pots and then acclimated in the growth chamber for two more days. Subsequently, the cuttings are transferred to the greenhouse, acclimated for approximately 4 days prior to spray. T0 or 2-week old T1 plants are sprayed with a treatment of the phenyluracils as disclosed SUPRA and optionally photosynthesis inhibitor diuron as negative control. Herbicide injury evaluations are taken at 2, 7, 14 and 21 days after treatment.
Evaluation performed 3 Days After Treatment (DAT) and 1 Week after Treatment (WAT) and shown as injury (0-9) relative to non-transgenic treated plants. Injury Scale: 0-9, 0=no injury, 9=maximum injury. Note: segregating lines.
The following gives a definition of the injury scores measured above: • Score Description of injury • 0 No Injury • 1 Minimal injury, only a few patches of leaf injury or chlorosis. • 2 Minimal injury with slightly stronger chlorosis. Overall growth points remain undamaged. • 3 Slightly stronger injury on secondary leaf tissue, but primary leaf and growth points are still undamaged. • 4 Overall plant morphology is slightly different, some chlorosis and necrosis in secondary growth points and leaf tissue. Stems are intact. Regrowth is highly probable within 1 week. • 5 Overall plant morphology is clearly different, some chlorosis and necrosis on a few leaves and growth points, but primary growth point is intact. Stem tissue is still green. Regrowth is highly probably within 1 week. • 6 Strong injury can be seen on the new leaflet growth. Plant has a high probability to survive only through regrowth at different growth points. Most of the leaves are chlorotic/necrotic but stem tissue is still green. May have regrowth but with noticeable injured appearance. • 7 Most of the active growth points are necrotic. There may be a single growth point that could survive and may be partially chlorotic or green and partially necrotic. Two leaves may still be chlorotic with some green; the rest of the plant including stem is necrotic. • 8 Plant will likely die, and all growth points are necrotic. One leaf may still be chlorotic with some green. The remainder of the plant is necrotic. • 9 Plant is dead.

[2] = tested on: Soybean CD215 WT (non-transgenic); format: in vivo; conditions: post, single plants
[3] = biological target: PPO AMATU WT (SEQ ID NO: 1) (Amaranthus tuberculatus, UniProt Q0NZW9); assay: PPO enzyme assay (recombinant); format: biochemical; conditions: 150 μM Protogen, molar concentration for 50% enzyme inhibition

## COC(=O)C(OC)Oc1ccccc1Oc1cc(-n2c(=O)cc(C(F)(F)F)n(C)c2=O)c(F)cc1Br (stereo not drawn) [Phenyluracil No. 1]
[1]; 25 g/ha + 1% MSO, 1WAT
  injury (0-9): 9 (Plant is dead.)
[1]; 25 g/ha + 1% MSO, 3DAT
  injury (0-9): 9 (Plant is dead.)
[1]; 50 g/ha + 1% MSO, 1WAT
  injury (0-9): 9 (Plant is dead.)
[1]; 50 g/ha + 1% MSO, 3DAT
  injury (0-9): 9 (Plant is dead.)
[1]; 100 g/ha + 1% MSO, 1WAT
  injury (0-9): 9 (Plant is dead.)
[1]; 100 g/ha + 1% MSO, 3DAT
  injury (0-9): 9 (Plant is dead.)
[2]; 25 g/ha + 1% MSO, 1WAT
  injury (0-9): 9 (Plant is dead.)
[2]; 25 g/ha + 1% MSO, 3DAT
  injury (0-9): 9 (Plant is dead.)
[2]; 50 g/ha + 1% MSO, 1WAT
  injury (0-9): 9 (Plant is dead.)
[2]; 50 g/ha + 1% MSO, 3DAT
  injury (0-9): 9 (Plant is dead.)
[2]; 100 g/ha + 1% MSO, 1WAT
  injury (0-9): 9 (Plant is dead.)
[2]; 100 g/ha + 1% MSO, 3DAT
  injury (0-9): 9 (Plant is dead.)

## COC(=O)C(OC)Oc1ccccc1Oc1cc(-n2c(=O)cc(C(F)(F)F)n(C)c2=O)c(F)cc1Br (stereo not drawn) [phenyluracil 1, methyl 2-[2-[2-bromo-4-fluoro-5-[3-methyl-2,6-dioxo-4-(trifluoromethyl)pyrimidin-1-yl]phenoxy]phenoxy]-2-methoxy-acetate]
[3]
  pIC50: 9.15

## CCOC(=O)C(OC)Oc1ccccc1Oc1cc(-n2c(=O)cc(C(F)(F)F)n(C)c2=O)c(F)cc1Br (stereo not drawn) [phenyluracil 2, ethyl 2-[2-[2-bromo-4-fluoro-5-[3-methyl-2,6-dioxo-4-(trifluoromethyl)pyrimidin-1-yl]phenoxy]phenoxy]-2-methoxy-acetate]
[3]
  pIC50: 9.49

## COC(Oc1ccccc1Oc1cc(-n2c(=O)cc(C(F)(F)F)n(C)c2=O)c(F)cc1Br)C(=O)O (stereo not drawn) [phenyluracil 3, 2-[2-[2-bromo-4-fluoro-5-[3-methyl-2,6-dioxo-4-(trifluoromethyl)pyrimidin-1-yl]phenoxy]phenoxy]-2-methoxy-acetic acid]
[3]
  pIC50: 9.74
